The text below walks through data of US20210246115A1 (Bioimics AB, priority 2017, published 2021).

Counter-ions that a name gives are not always drawn. Like-named read-outs stand apart in the source and are kept apart here. Bounds are passed on as bounds.

Assay [1] concerns E. coli RNase P RNA, M1 RNA. The experiment in a line: Initial screening for inhibition of RNase P activity (normalised cleavage of pATSerUG at maximum compound concentration). It is filed as biochemical. As to conditions: normalised cleavage (cleavage with compound / without compound) at maximum compound concentration.
For assay [2], the system named is Enterococcus faecalis (ATCC29212). Put plainly: MIC, broth microdilution (CLSI), Enterococcus faecalis. It counts as cell-based. In general terms: Broth dilution looks for growth in wells or tubes with falling amounts of substance.
For assay [3], the system named is Pseudomonas aeruginosa (ATCC27853). The experiment in a line: MIC, broth microdilution (CLSI), Pseudomonas aeruginosa. It counts as cell-based.
Assay [4] concerns Staphylococcus aureus subsp. aureus (ATCC29213). Put plainly: MIC, broth microdilution (CLSI), Staphylococcus aureus ATCC29213. It counts as cell-based. As to conditions: Staphylococcus aureus.
Assay [5] concerns E. coli RNase P RNA, M1 RNA. The experiment in a line: Inhibition of bacterial RNase P activity, IC50 determination (cleavage of pATSerUG by M1 RNA). As to conditions: NI: No inhibition. It counts as biochemical.
In assay [6] the test system is S. aureus MRSA ATCC 33591. Put plainly: MIC, S. aureus MRSA ATCC 33591. It counts as cell-based. As to conditions: Staphylococcus aureus, read-out: S. aureus MRSA ATCC 33591 MIC.
In assay [7] the test system is E. faecium ATCC 700221. The experiment in a line: MIC, E. faecium ATCC 700221. As to conditions: Enterococcus faecium. It is filed as cell-based.
For assay [8], the system named is S. pneumoniae ATCC 49619. Put plainly: MIC, S. pneumoniae ATCC 49619. It is filed as cell-based. As to conditions: Streptococcus pneumoniae, ATCC49619; Table XIV A. Gram-positive bacteria.
Assay [9] concerns E. coli JW5503 (efflux defective). The experiment in a line: MIC, E. coli JW5503 (efflux defective). It counts as cell-based. As to conditions: Escherichia coli, read-out: E. coli JW5503 (efflux defective) MIC.
Assay [10] relates to K. pneumoniae ATCC 43816. Put plainly: MIC, K. pneumoniae ATCC 43816. It counts as cell-based. As to conditions: Klebsiella pneumoniae, ATCC43816; Table XIV B. Gram-negative bacteria.
Assay [11] relates to H. influenzae ATCC 49247. Put plainly: MIC, H. influenzae ATCC 49247. As to conditions: Haemophilus influenzae, ATCC49247; Table XIV B. Gram-negative bacteria. It is filed as cell-based.
Assay [12] relates to A. baumannii ATCC 17978. The experiment in a line: MIC, A. baumannii ATCC 17978. It counts as cell-based. As to conditions: Acinetobacter baumannii, ATCC17978; Table XIV B. Gram-negative bacteria.
Assay [13] has as its system P. aeruginosa NTUH974 (MDR). Put plainly: MIC, P. aeruginosa NTUH974 (MDR). It counts as cell-based. As to conditions: Pseudomonas aeruginosa, read-out: P. aeruginosa NTUH974 (MDR) MIC.
Assay [14] deals with N. gonorrhoeae ATCC 700825. Put plainly: MIC, N. gonorrhoeae ATCC 700825. It counts as cell-based. As to conditions: Neisseria gonorrhoeae, ATCC700825; Table XIV B. Gram-negative bacteria.
Assay [15] has as its system Escherichia coli (ATCC25922). Put plainly: MIC, broth microdilution (CLSI), Escherichia coli. As to conditions: Escherichia coli.
Assay [16] concerns Staphylococcus aureus (ATCC25923). Put plainly: MIC, broth microdilution (CLSI), Staphylococcus aureus ATCC25923. As to conditions: Staphylococcus aureus, ATCC25923, read-out: S. aureus ATCC 25923 MIC.
The mark [17] stands for this setting: ATCC29212, read-out: E. faecalis ATCC 29212 MIC.
Setting [18] is: ATCC27853, read-out: P. aeruginosa ATCC 27853 MIC.
The mark [19] stands for this setting: ATCC29213, read-out: S. aureus ATCC 29213 MIC, Table XIV A. Gram-positive bacteria.
[20] abbreviates: ATCC700221, read-out: E. faecium ATCC 700221 MIC.
[21] abbreviates: ATCC25922, read-out: E. coli ATCC 25922 MIC, Table XIII.
Where [22] appears, read: ATCC25922, read-out: E. coli ATCC 25922 MIC, Table XIV B. Gram-negative bacteria.
The mark [23] stands for this setting: ATCC29212, Table XIV A. Gram-positive bacteria, read-out: E. faecalis ATCC 29212 MIC.
The mark [24] stands for this setting: ATCC27853, Table XIV B. Gram-negative bacteria, read-out: P. aeruginosa ATCC 27853 MIC.
Where [25] appears, read: ATCC29213, Table XIV A. Gram-positive bacteria, read-out: S. aureus ATCC 29213 MIC.
[26] abbreviates: Table XIV A. Gram-positive bacteria.
The mark [27] stands for this setting: ATCC700221, Table XIV A. Gram-positive bacteria, read-out: E. faecium ATCC 700221 MIC.
The mark [28] stands for this setting: Table XIV B. Gram-negative bacteria.

As to `Cl.c1c[nH]c(CNCCc2c[nH]c3ccccc23)c1` [Compound 14, N-((1H-pyrrol-2-yl)methyl)-2-(1H-indol-3-yl)ethan-1-amine hydrochloride salt], the “Initial screening of RNase P Inhibition” value in assay [1] stood at 0.78.
For `NC1CCC(NC(=O)CC(c2cccc(OC(F)(F)F)c2)c2cn(CC3CCCCC3)c3ccccc23)CC1` [Compound 143, N-((1S,4S)-4-aminocyclohexyl)-3-(1-(cyclohexylmethyl)-1H-indol-3-yl)-3-(3-(trifluoromethoxy)phenyl) propanamide hydrochloride salt], the MIC in assay [2] (setting [17]) was 4 mg/L; in assay [3] (setting [18]) it was above 128 mg/L; in assay [4] (setting [19]) it was 4 mg/L; in assay [6], 16 mg/L; in assay [7] (setting [20]), 4 mg/L; in assay [8], 16 mg/L. Besides, the MIC in assay [9] was 64 mg/L; in assay [10], above 128 mg/L; in assay [11], 16 mg/L; in assay [12], above 128 mg/L; in [13], above 128 mg/L; in assay [14], 2 mg/L. The MIC in assay [15] (setting [21]) is above 512 mg/L; in [15] (setting [22]) it was above 128 mg/L; in [16] it was 2 mg/L. In assay [5], this molecule displayed an IC50 of 20 µM.
For `Cc1cccc(C(CCN2CCC(N)CC2)c2cn(CC3CCCCC3)c3ccccc23)c1` (stereo not shown) [Compound 216, 1-(3-(1-(cyclohexylmethyl)-1H-indol-3-yl)-3-(m-tolyl)propyl)piperidin-4-amine hydrochloride salt], the MIC is 4 mg/L in [2] (setting [17]); 64 mg/L in assay [3] (setting [18]); 4 mg/L in assay [4] (setting [19]); 4 mg/L in assay [6]; 2 mg/L in assay [7] (setting [20]); 8 mg/L in assay [8]. Moreover, the MIC was found to be 4 mg/L in [9]; 128 mg/L in [10]; 4 mg/L in [11]; 8 mg/L in [12]; 64 mg/L in [13]; 2 mg/L in assay [14]. Besides, the values for the MIC in assay [15] (setting [21]), in [15] (setting [22]) and in [16] were 4 mg/L, 8 mg/L and 4 mg/L, respectively. Half-maximal inhibition in assay [5] (IC50) required 25 µM.
Consider `Cc1cccc(C(CC(=O)Nc2ccc(CN)cc2)c2cn(CC3CCCCC3)c3ccccc23)c1.Cl` (stereo not shown) [Compound 139, N-(4-(aminomethyl)phenyl)-3-(1-(cyclohexylmethyl)-1H-indol-3-yl)-3-(m-tolyl)propanamide hydrochloride salt], for which the MIC in [2] (setting [23]) is 4 mg/L; in assay [3] (setting [24]) it was above 128 mg/L; in [4] (setting [25]), 4 mg/L; in [6] (setting [26]), 8 mg/L; in assay [7] (setting [27]) it was 4 mg/L; in [8] it was 16 mg/L. Also, the MIC was 32 mg/L in assay [9]; above 128 mg/L in assay [10]; 16 mg/L in [11]; above 128 mg/L in assay [12]; above 128 mg/L in assay [13] (setting [28]); 2 mg/L in [14]. Moreover, the MIC in assay [15] (setting [21]) was above 512 mg/L; in [15] (setting [22]), above 128 mg/L; in [16] it was 2 mg/L. Further, the IC50 in [5] amounted to 46 µM.
As for `NC1CCC(NCCC(c2cccc(C(F)(F)F)c2)c2cn(CC3CCCCC3)c3ccccc23)CC1` [Compound 168, (1S,4S)-N1-(3-(1-(cyclohexylmethyl)-1H-indol-3-yl)-3-(3-(trifluoromethyl)phenyl)propyl)cyclohexane-1,4-diamine hydrochloride salt], the MIC in assay [2] (setting [23]) is 2 mg/L; in [3] (setting [24]), 16 mg/L; in [4] (setting [25]) it was 2 mg/L; in [6] (setting [26]), 4 mg/L; in assay [7] (setting [27]), 2 mg/L; in assay [8], 8 mg/L. In addition, the MIC in assay [9] was found to be 4 mg/L; in assay [10] it was 4 mg/L; in assay [11], 4 mg/L; in assay [12], 4 mg/L; in assay [13] (setting [28]), 16 mg/L; in assay [14] it was 2 mg/L. Also, the MIC is 5 mg/L in [15] (setting [21]), 4 mg/L in [15] (setting [22]) and 2 mg/L in assay [16]. Moreover, in assay [5], the IC50 came out at 11 µM.
Regarding `Cc1cccc(C(CCNC2CCC(N)CC2)c2cn(CC34CC5CC(CC(C5)C3)C4)c3ccccc23)c1` [Compound 232, (1S,4S)-N1-(3-(1-(((1S,4S)-adamantan-1-yl)methyl)-1H-indol-3-yl)-3-(m-tolyl)propyl)cyclohexane-1,4-diamine hydrochloride salt], the MIC in [2] (setting [23]) was 4 mg/L; in assay [3] (setting [24]) it was 32 mg/L; in assay [4] (setting [25]), 4 mg/L; in assay [6] (setting [26]), 4 mg/L; in [7] (setting [27]) it was 2 mg/L; in [8] it was 8 mg/L. The MIC in assay [9] was found to be 4 mg/L; in assay [10], 8 mg/L; in assay [11], 8 mg/L; in assay [12] it was 8 mg/L; in assay [13] (setting [28]), 32 mg/L; in [14], 4 mg/L. The MIC in assay [15] (setting [21]) was 5 mg/L; in [15] (setting [22]), 4 mg/L; in assay [16], 2 mg/L. This molecule also came in with an IC50 in assay [5] of 8.3 µM.
For `N[C@H]1CC[C@H](NCCc2cn(CC3CCCCC3)c3ccc(-c4cccc(OC(F)(F)F)c4)cc23)CC1` [Compound 274, hydrochloride salt], the MIC came out at 2 mg/L in [2] (setting [23]); 8 mg/L in [3] (setting [24]); 4 mg/L in [4] (ATCC29213, Table XIII, read-out: S. aureus ATCC 29213 MIC); 2 mg/L in assay [4] (setting [25]); 2 mg/L in assay [6] (setting [26]); 2 mg/L in [7] (setting [27]). The MIC in assay [8] was found to be 8 mg/L; in assay [9], 4 mg/L; in [10], 8 mg/L; in assay [11], 4 mg/L; in assay [12] it was 8 mg/L; in [13] (setting [28]) it was 16 mg/L. Besides, the MIC in [14] is 2 mg/L; in [15] (setting [21]), 2 mg/L; in [15] (setting [22]), 4 mg/L; in assay [16] it was 2 mg/L. This molecule also came in with an IC50 in assay [5] of 6.53 µM.
On to `NC1CCC(NCCC(c2cccc(Cl)c2)c2cn(CC3CCCCC3)c3ccccc23)CC1` [Compound 170, (1S,4S)-N1-(3-(3-chlorophenyl)-3-(1-(cyclohexylmethyl)-1H-indol-3-yl)propyl) cyclohexane-1,4-diamine hydrochloride salt], for which the MIC came out at 2 mg/L in assay [2] (setting [23]); 16 mg/L in assay [3] (setting [24]); 2 mg/L in assay [4] (setting [25]); 4 mg/L in assay [6] (setting [26]); 2 mg/L in assay [7] (setting [27]); 8 mg/L in assay [8]. The MIC in assay [9] worked out at 2 mg/L; in assay [10], 8 mg/L; in assay [11], 4 mg/L; in assay [12], 4 mg/L; in [13] (setting [28]), 32 mg/L; in assay [14] it was 2 mg/L. The MIC in assay [15] (setting [21]) is 4 mg/L; in assay [15] (setting [22]) it was 4 mg/L; in assay [16], 2 mg/L. For the same molecule, in assay [5], the IC50 was found to be 16 µM.
Take `Cc1cccc(CC(CC(=O)N[C@H]2CC[C@H](N)CC2)c2cn(CC3CCCCC3)c3ccccc23)c1.Cl` (stereo partly drawn) [Compound 202, N-((1R,4R)-4-aminocyclohexyl)-3-(1-(cyclohexylmethyl)-1H-indol-3-yl)-4-(m-tolyl)butanamide hydrochloride salt]: the MIC was found to be 8 mg/L in [2] (setting [23]); 32 mg/L in assay [3] (setting [24]); 16 mg/L in assay [4] (setting [25]); 8 mg/L in assay [6] (setting [26]); 4 mg/L in [7] (setting [27]); 16 mg/L in assay [8]. The MIC in [9] was determined as 16 mg/L; in [10], 64 mg/L; in [11], 16 mg/L; in [12], 32 mg/L; in assay [13] (setting [28]), 32 mg/L; in assay [14], 4 mg/L. For the same molecule, the MIC in assay [15] (setting [21]) came out at 33 mg/L; in assay [15] (setting [22]), 128 mg/L; in assay [16], 2 mg/L. The IC50 in assay [5] was 10.7 µM.

As a reminder, the IC50 is the concentration at which inhibition is half-maximal. A higher IC50 goes with a need for much substance.
